Results published in US9988358B2, “Phenazinium mediators” (Roche Diagnostics Operations, Inc., priority 2014, dated 2018).

How the values were obtained:
Assay type in all cases: physicochemical
[1] = Formal redox potential by cyclic voltammetry in a test strip
Description: FIG. 1.) cyclic voltammograms of 1-(3-Carboxy-propionylamino)-5-ethyl-phenazinium (compound of formula (III)). A: Buffer pH 7.0 (blank current), B: 2 mM 1-(3-Carboxy-propionylamino)-5-ethyl-phenazinium in buffer, C: 2 mM 1-(3-Carboxy-propionylamino)-5-ethyl-phenazinium+1.2 mM ascorbic acid in buffer, D: 1.2 mM ascorbic acid in buffer.
The formal redox potential of a typical 1-Acylated amino phenazinium ethosulfate, 1-(3-Carboxy-propionylamino)-5-ethyl-phenazinium (compound of formula (III)), was measured vs. Ag/AgCl at a gold working electrode in a test strip. The cyclic voltammograms show, that a relatively low potential of −100 mV vs. Ag/AgCl is sufficient in order to oxidize the substance.
The quasi reversible oxidation and reduction of the mediator 1-(3-Carboxy-propionylamino)-5-ethyl-phenazinium occurs in a potential range between 0 mV and −500 mV vs. Ag/AgCl via two electron transfer. Ascorbic acid cannot be oxidized in this potential window and the current is similar to the blank current of the pure buffer solution.

[2] = Pot life of mediator formulations; settings: 48 h vs t=0 in reaction mixture
Description: FIG. 3.) Pot life of mediator formulations. Mediators 1-(3-Carboxy-propionylamino)-5-ethyl-phenazinium and 1-(3-Carboxypropoxy)-5-ethylphenazinium were compared in a pot life experiment. Pot life of 1-(3-Carboxy-propionylamino)-5-ethyl-phenazinium (A: 0 h, B: 48 h) and 1-(3-Carboxypropoxy)-5-ethylphenazinium (C:=0 h, D: 48 h) are shown; Linear: linear regression.
Mediators 1-(3-Carboxy-propionylamino)-5-ethyl-phenazinium and 1-(3-Carboxypropoxy)-5-ethylphenazinium were compared in a pot life experiment. Performance of mediators was measured immediately after preparing the reaction mixture (t=0) and after 48 h. […] Therefore, both mediators seem to be very stable in a formulation.

[3] = Reactivity towards ascorbate, decrease of absorption over time; settings: 0.23 mM compound, room temperature, 0.1 M triethylammonium acetate buffer pH 7, 5 fold molar excess of ascorbate
Description: 1-Acetylamino-5-methyl-phenazinium trifluormethanesulfonate, 1-Acetylamino-5-ethyl-phenazinium trifluoroacetate, and 1-(3-Carboxy-propionylamino)-5-ethyl-phenazinium (formula III) were compared regarding their reactivity towards ascorbate. To this end, each 0.23 mM of the respective compound was incubated at room temperature in 0.1 M triethylammonium acetate buffer (pH 7) in the presence of a 5 fold molar excess of ascorbate. Decrease of absorption at 517 nm (1-(3-Carboxy-propionylamino)-5-ethyl-phenazinium) or 512 nm (other two compounds) was recorded over time. Whereas with 1-Acetylamino-5-methyl-phenazinium, the absorption decreased by 12% per minute, the decrease slowed to 7% per minute for 1-Acetylamino-5-ethyl-phenazinium, and to less than 5% for 1-(3-Carboxy-propionylamino)-5-ethyl-phenazinium.

redox potential after adding ascorbic acid ([1]; 2 mM mediator + 1.2 mM ascorbic acid in buffer pH 7.0, cyclic voltammetry) [mV vs. Ag/AgCl] | formal redox potential ([1]; gold working electrode in a test strip, physiological conditions (0.9% NaCl), cyclic voltammetry) [mV vs. Ag/AgCl] | change in current after pot life [2] | decrease of absorption at 517 nm [3] | SMILES | decrease of absorption at 512 nm [3] [% per minute]
−231 | −236 | no significant decrease in current | less than 5% | CC[n+]1c2ccccc2nc2c(NC(=O)CCC(=O)O)cccc21 [1-(3-Carboxy-propionylamino)-5-ethyl-phenazinium] | 
 |  | no significant decrease in current |  | CC[n+]1c2ccccc2nc2c(OCCCC(=O)O)cccc21 [1-(3-Carboxypropoxy)-5-ethylphenazinium, reference compound] | 
 |  |  |  | CC[n+]1c2ccccc2nc2c(NC(C)=O)cccc21.O=C([O-])C(F)(F)F [1-Acetylamino-5-ethyl-phenazinium, 1-Acetylamino-5-ethyl-phenazinium trifluoroacetate] | 7
 |  |  |  | CC(=O)Nc1cccc2c1nc1ccccc1[n+]2C.O=S(=O)([O-])C(F)(F)F [1-Acetylamino-5-methyl-phenazinium, 1-Acetylamino-5-methyl-phenazinium trifluormethanesulfonate] | 12
